Measured values published in US20260365637A1, “DUAL EZH2-HSP90 INHIBITORS” (TAIPEI MEDICAL UNIVERSITY, priority 2023, published 2026).
“Also recorded” adds a separate entry of the source.

Columns and labels:
HSP90a = HSP90a (Homo sapiens, UniProt P07900); test: In vitro HSP90 inhibition assay (Reaction Biology Corporation); format: biochemical
Protocol: The HSP90 inhibitory activity of the synthesized adduct was assessed by Reaction Biology Corporation, Malvern, PA (http://www.reactionbiology.com).
An in-vitro experiment was performed to assess the inhibitory effect of the synthesized adducts on the heat shock protein 90 (HSP90).

Pt3R cells [1] = test: Itraq-based proteomics analysis of Pt3R cells; format: cell-based, human; parameters: M059/DMSO, P4HA2 (O15460) / M059/DMSO, ATP6V1E1 (P36543) / M059/DMSO, HSPH1 (Q92598) / M059/DMSO, ACTB (P60709) / M059/DMSO, HSPB1 (P04792) / M059/DMSO, S100A10 (P60903) / M059/DMSO, LRPAP1 (P30533) / M059/DMSO, GIPC1 (O14908) / M059/DMSO, HSPE1 (P61604) / M059/DMSO, OLA1 (Q9NTK5) / M059/DMSO, EEF1B2 (P24534) / M059/DMSO, PSMD3 (O43242) / M059/DMSO, ZYX (Q15942) / M059/DMSO, HK1 (P19367) / M059/DMSO, ARF3 (P61204) / M059/DMSO, TWF1 (Q12792) / M059/DMSO, HSPA8 (P11142) / M059/DMSO, CTNNB1 (P35222) / M059/DMSO, EHD1 (Q9H4M9) / M059/DMSO, HSPA4 (P34932) / M059/DMSO, PSMD14 (O00487): dose or concentration left out as unconfirmed
Protocol: (§1) Pt3 GBM cells were isolated from a GBM patient as described in our previous study. Temozolomide (TMZ)-resistant phenotype of Pt3R cells had been validated previously. Pt3 cells were cultured in DMEM-supplemented with 10% fetal bovine serum, 100 μg/ml streptomycin and 100 μg/ml penicillin G. Pt3R cells were cultured in the presence of 100 μM of TMZ (MilliporeSigma Corporate, St. Louis, MO, USA).
(§2) RNA was isolated using the RNA extracting kit (Zymo Research, Irvine, CA, USA), and subjected to RNA-seq serviced by BIOTOOLS Co., Ltd (New Taipei City, Taiwan). Cell pellets were collected and subjected to proteomic analysis serviced by BIOTOOLS Co., Ltd. The comparison in gene expression between Pt3 and Pt3R was performed using RNA seq, and has been described previously.
Having identified the desired chemical probe 7, we assessed global protein expression using Itraq-based proteomics analysis to estimate whether 7 suppresses HSP90 (Pt3R cell lines). […] This observation is aligned with the results attained with geldanamycin treatment (a well-known HSP90 inhibitor) (Cheung, C. H. A.; Chen, H.-H.; Cheng, L.-T.; Lyu, K. W.; Kanwar, J. R.; Chang, J.-Y. TargetingHsp90 with small molecule inhibitors induces the over-expression of the anti-apoptotic molecule, survivin, in human A549, HONE-1 and HT-29 cancer cells. Mol. Cancer 2010, 9 (1), 1-11; Kuroyanagi, G.; Tokuda, H.; Fujita, K.; Kawabata, T.; Sakai, G.; Kim, W.; Hioki, T.; Tachi, J; Matsushima-Nishiwaki, R.; Otsuka, T. Upregulation of TGF-β-induced HSP27 by HSP90 inhibitors in osteoblasts. BMC Musculoskelet. Disord. 2022, 23 (1), 495) and confirms the HSP90-suppressive activity of compound 7 in GBM cells.

Pt3R cells [2] = test: Cell viability / cytotoxicity of TMZ-resistant Pt3R cells (CCK8); format: cell-based, human
Pt3R cells [3] = test: RNA-seq gene expression profiling in Pt3R cells; format: cell-based, human
Protocol: as §1, §2
To gain insights regarding the ability of dual inhibitor 7 to suppress the viability of TMZ-resistant GBM cells, RNA-seq to analyze gene expression profiles was performed.

Pt3R cells [4] = test: Cell cycle analysis (propidium iodide, flow cytometry); format: cell-based, human; conditions: 24 h, FIG. 5E
mitochondrial ROS = test: MitoSOX assay of mitochondrial ROS; format: cell-based
Protocol: Dihydrorhodamine 123 (DHR; Thermo Fisher Scientific, Waltham, MA, USA) was used to label cellular ROS detected by flow cytometry, and the MitoSOX reagent (Thermo Fisher Scientific) was used to label mitochondrial ROS [55].
Thus, the ability of compound 7 to disturb redox homeostasis in TMZ-resistant cells and attain amplified therapeutic efficacy for GBM was evaluated. In both Pt3 and Pt3R cells, treatment with compound 7 for 48 h increased the ROS level (FIG. 7A). […] Moreover, it was also observed that compound 7 increased mitochondria-derived ROS.
Treatment concentration of MPT1A059 was indicated.

Compound: CCN(c1cc(-c2cccc(N(C)C(=O)c3cc(C(C)C)c(O)cc3O)c2)cc(C(=O)NCc2c(C)cc(C)[nH]c2=O)c1C)C1CCOCC1 [Compound 7, 3′-(2,4-dihydroxy-5-isopropyl-N-methylbenzamido)-N-((4,6-dimethyl-2-oxo-1,2-dihydropyridin-3-yl)methyl)-5-(ethyl(tetrahydro-2H-pyran-4-yl)amino)-4-methyl-[1,1′-biphenyl]-3-carboxamide]
- HSP90 inhibitory potential in words (HSP90a): conferred HSP90 inhibitory potential
- IC50 (HSP90a): 60.1 nM
- HSP family proteins (HSPA1A, HSPA8, HSP90AA1, HSPB1, HSPH1 and HSPA4) (Pt3R cells [1]; Pt3R cells): significantly increased
- M059/DMSO, PA2G4 (Q9UQ80) (Pt3R cells [1]; decreased): 0.628
- M059/DMSO, ACTB (P60709) (Pt3R cells [1]; increased): 1.657
- M059/DMSO, ARF3 (P61204) (Pt3R cells [1]; increased): 1.944
- M059/DMSO, ATP5IF1 (Q9UII2) (Pt3R cells [1]; increased): 1.646
- M059/DMSO, ATP6V1E1 (P36543) (Pt3R cells [1]; increased): 1.599
- M059/DMSO, CTNNB1 (P35222) (Pt3R cells [1]; increased): 1.550
- M059/DMSO, EEF1B2 (P24534) (Pt3R cells [1]; increased): 1.792
- M059/DMSO, EHD1 (Q9H4M9) (Pt3R cells [1]; increased): 1.555
- M059/DMSO, GIPC1 (O14908) (Pt3R cells [1]; increased): 1.699
- M059/DMSO, HK1 (P19367) (Pt3R cells [1]; increased): 1.921
- M059/DMSO, HSP90AA1 (P07900) (Pt3R cells [1]; increased): 1.958
- M059/DMSO, HSPA4 (P34932) (Pt3R cells [1]; increased): 1.561
- M059/DMSO, HSPA8 (P11142) (Pt3R cells [1]; increased): 2.096
- M059/DMSO, HSPB1 (P04792) (Pt3R cells [1]; increased): 1.661
- M059/DMSO, HSPE1 (P61604) (Pt3R cells [1]; increased): 1.710
- M059/DMSO, HSPH1 (Q92598) (Pt3R cells [1]; increased): 1.642
- M059/DMSO, LRPAP1 (P30533) (Pt3R cells [1]; increased): 1.667
- M059/DMSO, OLA1 (Q9NTK5) (Pt3R cells [1]; increased): 1.745
- M059/DMSO, P4HA2 (O15460) (Pt3R cells [1]; increased): 1.588
- M059/DMSO, PSMD3 (O43242) (Pt3R cells [1]; increased): 1.801
- M059/DMSO, PSMD14 (O00487) (Pt3R cells [1]; increased): 1.579
- M059/DMSO, S100A10 (P60903) (Pt3R cells [1]; increased): 1.664
- M059/DMSO, TWF1 (Q12792) (Pt3R cells [1]; increased): 1.995
- M059/DMSO, ZYX (Q15942) (Pt3R cells [1]; increased): 1.903
- cell growth / viability inhibitory effect in words (Pt3R cells [2]): the only ones to exert cell viability inhibitory potential; also recorded: the most effective against the Pt3R cell lines
- IC50 (Pt3R cells [2]; read-out: Cell growth inhibitory effect IC50): 1010 nM
- DNA repair capacity (Pt3R cells [3]): highly suppressed
- CENPF, CENPE, CENPA and CENPI (gene expression) (Pt3R cells [3]; FIG. 5C): decreased
- RBBP8 and BRCA1 gene expression (Pt3R cells [3]; FIG. 6A): suppressed
- expression of genes involved in processing DNA double-strand break and in homologous recombination (Pt3R cells [3]; FIG. 6A): decreased
- expression of genes regulating homologous recombination (TOP2A, RAD54B, RAD21, EME1, BRIP1) (Pt3R cells [3]; FIG. 6H): suppressed
- cell division and DNA repair gene sets (GSEA) (Pt3R cells [3]; GSEA): highly suppressed
- M phase/kinetochore/spindle-related gene expression (Pt3R cells [3]; RNA-seq): decreased
- apoptosis/necrosis-related gene expression (Pt3R cells [3]; RNA-seq): increased
- number of gene expressions decreased (Pt3R cells [3]; RNA-seq, 2 μM, 48 h): 498
- number of gene expressions increased (Pt3R cells [3]; RNA-seq, 2 μM, 48 h): 297
- cell cycle (Pt3R cells [4]): induced cell cycle arrest at the M phase
- mitochondria-derived ROS (mitochondrial ROS): increased
- MitoSOX red signal representing ROS produced from mitochondria (mitochondrial ROS; FIG. 7C): remarkably enhanced
